Experimental data taken from patent US11360104B2, “Microbial-based biosensors” (TRUSTEES OF BOSTON UNIVERSITY, priority 2017, dated 2022).
Where two headings read alike, the source gives them in different places.

Legend:
PinR = PinR (Nocardioides simplex (Pimelobacter simplex), UniProt A0A0A1DUF2); test: Cross-reactivity assay of steroids using sensor 3; assay type: biochemical; conditions: for % cross-reactivity: relative to progesterone; for % cross-reactivity / P (slope of fit): sensor 3, HEPES 1×
Sequence of PinR (A0A0A1DUF2 entry or part of it): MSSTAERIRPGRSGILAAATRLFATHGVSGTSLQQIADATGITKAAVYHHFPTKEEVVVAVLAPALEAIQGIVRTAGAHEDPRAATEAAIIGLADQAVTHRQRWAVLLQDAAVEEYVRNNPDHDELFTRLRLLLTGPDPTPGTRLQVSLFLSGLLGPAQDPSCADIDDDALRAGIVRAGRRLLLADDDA
Procedure: The cross-reactivity of progesterone regarding the different steroids was calculated with the following equation:
Description for a typical experiment, using a molar ratio of QD/TF/DNA=1/4/18.
50 uL of the sensor (QD/TF/DNA) was then splitted in 3×9 centrifuge tubes to which 10 uL of progesterone at the desired concentration is added. […] A 384 well plate was filled with 60 uL of each solution. The fluorescence intensity was monitored on a spectrofluorimeter from 535 nm to 800 nm exciting at 400 nm, equipped with a 450 nm long-pass filter in emission.

[1] = tested on: steroid responsive genome island (SRGI); test: Whole transcriptome RNA-Seq of steroid treated P. simplex; assay type: cell-based, Pimelobacter simplex; conditions: P. simplex exposed to steroid vs solvent control, Log2 fold change
Source text: (§1) In order to identify steroid binding Transcription Factors, a whole transcriptome RNA sequencing (RNA-Seq) screen was developed (FIG. 7). The growth of Pimelobacter simplex bacteria was profiled with respect to the starting inoculation density, solvent toxicity, and the addition of steroids (FIG. 16). […] P. simplex bacteria were screened against the steroid solvents ethanol (EtOH) and dimethyl sulfoxide (DMSO). […] Steroid growth curves were similarly performed using a starting OD of 0.005 and constant solvent dosing with titrations of steroids. […] P. simplex bacteria were grown in the presence of 700 μM testosterone, 21.88 μM progesterone, 87.50 μM estrone, 21.88 μM 17β-estradiol, 21.88 μM hydrocortisone, or 175.00 μM aldosterone concentrations were selected for comparison.
(§2) Using accession gene tags, genes were annotated for steroid relevant enzymes or transcription factors. […] Allosteric TF binding sequences are often palindromes and typically located near the start of its gene location in an intergenic space. With such a design, the allosteric TF can regulate itself or the open reading frame (ORF) near it in response to its effector molecule. […] Once identified, the TFs were cloned and recombinantly expressed for thorough characterization.
(§3) Cells were grown in 6 mL volumes of media at the OD, solvent, and steroid concentrations found from the growth curves in 14 mL polypropylene round-bottom tubes (Corning #352059) in technical duplicate. The same controls as in the steroid exposure growth curve were used for setting up RNA extraction samples. The cells were incubated at their corresponding temperature with continuous orbital shaking at 150 rpm until the end of lag-phase, mid-log phase, or stationary phase from the start of inoculation. Afterward, samples were removed and a 1:1 ratio of RNAprotect Bacteria Reagent (Qiagen #76506) was added followed by spinning down at 4° C. for 10 minutes at 4000 g. Supernatant was removed and the pellet re-suspended in 300 μL of RNAprotect and transferred into 2.0 mL Safe-Lock Tubes (Eppendorf #3101). The samples were then spun down once again at 4° C. for 10 minutes at 10000 g. Once the supernatant has been removed the samples were placed on ice and ready for RNA extraction. RNA extraction was done by Qiacube (Qiagen #9001292) set to the RNeasy Protect Bacteria Mini Kit protocol of bacterial cell pellet with enzymatic lysis. Tube A was prepared as described except with the addition of 150 mg/mL lysozyme (Sigma-Aldrich #L6876) and 20 mg/mL proteinase K (Roche #03115879001) all diluted in 1xTE buffer. RNA samples were subsequently quantified using Qubit RNA HS Assay Kit (Thermo Fisher Scientific #Q32852) and analyzed using a RNA 6000 Pico Kit (Agilent 5067-1513) in a 2100 Bioanalyzer (Agilent G2939A). RNA samples were either immediately used for RNA-Seq library preparation or stored long-term at −80° C.
(§4) RNA-Seq libraries were then produced from these samples using a slightly modified ScriptSeq v2 RNA-Seq Library Preparation Kit (Illumina 455A/22124) ensuring use of unique index primers through ScriptSeq Index PCR Primers (Sets 1-4) 48 rxns/set (Illumina #SSIP1234).

Pimelobacter simplex = test: Solvent and steroid exposure growth curves
Source text: as §1
In order to properly determine the doubling time of the strain, growth curves were performed. All growth curves were done in 100 μL per well volumes in 96 well flat clear bottom black polystyrene TC-treated microplates which were individually wrapped with a lid and sterile (Corning #3603). Measurements were done by an Infinite M200 Pro (TECAN) spectrophotometer at the temperature suited for P. simplex. Readings were performed over 96 cycles of 15 minutes each at 600 nm absorbance with 25 flashes in a 3×3 (XY-Line) type reads per well. In between reads there was orbital shaking at 150 rpm frequency for a total of 10 minutes. In order to characterize the growth alone, a ½ serial dilution of 9 concentrations from 0.5-0.0020 OD600 nm were prepared in the respective media. Then each concentration was measured as previously described using a microplate reader (TECAN) and normalized against a media background control in technical triplicate. Afterward, an appropriate starting concentration of cells was chosen with a substantially long lag-phase, linear log phase, and a plateau of stationary-phase.
Once an appropriate starting cell concentration was chosen, a secondary growth curve was performed to test the toxicity levels of the solvents used to dissolve steroids of interest. Since the steroids used are heavily hydrophobic, they often need to be dissolved in organic solvents such as DMSO or ethanol which are toxic to bacteria at high concentrations. P. simplex was incubated under microplate reader conditions previously mentioned at a starting OD determined by the first growth curve with DMSO, ethanol, or H2O at ½ serial dilutions for a total of eight concentrations (50-0.39%) tested in technical triplicate. Two controls were included per solvent; a positive control without solvent and a media control which allowed for appropriate normalization. Solvent exposure growth curves allowed for choosing the maximum amount of solvent concentration that strains would sustain while maintaining relative viability in order to determine a range of steroid concentrations which could be used.
A tertiary growth curve was performed to test the toxicity levels of steroid specific to P. simplex. The strain was incubated under microplate reader conditions previously mentioned at a starting OD determined by the first growth curve and the highest solvent concentration corresponding to the steroid of interest with steroid at ½ serial dilutions for a total of seven concentrations tested in singlet. Testosterone, progesterone, 17β-estradiol, hydrocortisone, and aldosterone were all dissolved in ethanol while estrone was dissolved in DMSO. Three controls were included for each steroid; a positive control with the highest tolerable solvent concentration (%), a positive control with media, and a media control which allowed for normalization. Steroid exposure growth curves allowed for choosing the maximum amount of steroid concentration that P. simplex would sustain while maintaining relative viability.

[2] = tested on: P. simplex bacteria (steroid responsive genome island, SRGI); test: RNA-Seq screen of steroid treated P. simplex against solvent controls; assay type: cell-based, Pimelobacter simplex; conditions: Log2 fold change vs solvent control
Source text: as §1, §2, §3, §4

[3] = tested on: Pimelobacter simplex PinR (AIY20223.2; SEQ ID NO: 1), his-tagged (AIY-his6); test: QD-FRET steroid sensor (QD-PinR + DNA-Cy5), steroid-induced TF-DNA unbinding; assay type: biochemical
Procedure: Fluorescent spectra were analyzed using MATLAB (Mathworks) and were fitted with a sum of 2 Gaussians (D=QD: FWHM=27 nm, λmax=607 nm; A=DNA-Cy5: FWHM=40 nm, λmax=669 nm). The area of each Gaussian was extracted and FD and FA are obtained respectively for the fluorescence of QD (donor) and Cy5 (acceptor).
Raw dose-response curves were obtained by plotting FA/FD as a function of the steroid concentration. Sensor output is the normalization of the fluorescent spectra of the donor and acceptor according to the following equation: […]
Non-normalized dose-response were fitted with Origin Pro 8 software with the non-linear equation: […]
The cross-reactivity of progesterone regarding the different steroids was calculated with the following equation: […]
CdSe/CdS/ZnS QDs were coated with a zwitterionic polymer bearing histamine anchoring functions (P1, SI). Once the hydrophobic QDs were transferred into H2O using a biphasic ligand exchange, his-tagged TFs were self-assembled on the QD surface to produce the QD-TF. Addition of the double stranded, Cy5-labeled TF-binding sequence completed probe assembly as the oligo binds to the TF in the absence of progesterone (PRG). The molar ratios of the QD, TF, and DNA in the sensor were controlled through the stoichiometric ratios of the mixed parts.
Two fluorescent spectra were recorded, one from the QDs and one from the Cy5 due to the FRET.
First, the DNA1 (most binding sequence) has been used to build the first biosensor, named sensor 1. For this sensor, a ratio of QD/TF/DNA of 1/4/18 was chosen. […] In order to homogenize the fluorescent signals in between batches and different sensor variations, FA/FD was normalized to give the signal output. Signal output is then plotted against PRG concentration to give a dose-response curve (FIG. 9C) This curve was fitted with the non-linear equation XX to obtain the half-maximal inhibitory concentration (IC50) (Table 13).
Description for a typical experiment, using a molar ratio of QD/TF/DNA=1/4/18. QDs in (275 uL, 0.15 uM in HEPES 1×, pH 7.6 with 1% BSA) were mixed with AIY-his6 (275 uL, 0.6 uM in HEPES 1× pH 7.6) at room temperature for 45 min. Then, the double-stranded DNA labelled with a Cy5 fluorescent probe at the 3′ and 5′ ends (275 uL, 2.7 uM in HEPES 1× pH 7.6) was added to the mixture. After 30 min, 220 uL of HEPES 1× pH 7.5 and 330 uL of 5× binding buffer (25 mM MgCl2, 25% glycerol, and 250 mg/L Invitrogen™ UltraPure™ Salmon Sperm DNA in Tris-HCl 0.1M) were added and the mixture is left 15 more min at RT.
50 uL of the sensor (QD/TF/DNA) was then splitted in 3×9 centrifuge tubes to which 10 uL of progesterone at the desired concentration is added. As such, the final concentration of QD/TF/DNA for the measurements is 25 nM/100 nM/450 nM. A 384 well plate was filled with 60 uL of each solution. The fluorescence intensity was monitored on a spectrofluorimeter from 535 nm to 800 nm exciting at 400 nm, equipped with a 450 nm long-pass filter in emission.

[4] = P. simplex, starting OD 0.005, constant solvent

Compound | IC50 (PinR) [nM] | % cross-reactivity (PinR) [%] | P (slope of fit) (PinR) | upregulation of genes inside the SRGI [1] | highest steroid concentration exhibiting normal growth profile (Pimelobacter simplex) [µM] | upregulation of genes inside the SRGI (in words) [2] | effect on sensor binding/unbinding (in words) ([3]; QD:TF:oligo 1:4:6, [QD]=50 nM) | highest steroid concentration exhibiting normal growth profile (Pimelobacter simplex; [4]) [µM] | cross-reactivity (in words) ([3]; sensor 3 in HEPES 1×, 0 to 10 uM steroid)
C[C@]12CCC(=O)C=C1CC[C@@H]1[C@@H]2[C@@H](O)C[C@]2(C=O)[C@@H](C(=O)CO)CC[C@@H]12 [ALD, Aldosterone] | 289 ± 36 | 20 ± 2 | 1.65 ± 0.28 | observed | 175.00 | upregulation of genes inside the SRGI were observed | – | – | –
C[C@]12CCC(=O)C=C1CC[C@@H]1[C@@H]2[C@@H](O)C[C@@]2(C)[C@H]1CC[C@]2(O)C(=O)CO [CRT, Hydrocortisone] | 180 ± 19 | 33 ± 3 | 1.23 ± 0.13 | observed | 21.88 | upregulation of genes inside the SRGI were observed | – | – | –
C[C@]12CC[C@@H]3c4ccc(O)cc4CC[C@H]3[C@@H]1CC[C@@H]2O [ESD, 17β-Estradiol] | – | – | – | – | – | not when exposed to 17β-estradiol and estrone | no impact on the sensor binding/unbinding | – | –
C[C@]12CC[C@@H]3c4ccc(O)cc4CC[C@H]3[C@@H]1CCC2=O [ESN, Estrone] | – | – | – | – | – | not when exposed to 17β-estradiol and estrone | – | 87.50 | No cross-reactivity was observed
C[C@]12CC[C@H]3[C@@H](CCC4=CC(=O)CC[C@@]43C)[C@@H]1CC[C@@H]2O [testosterone, Testosterone] | – | – | – | observed | – | upregulation of genes inside the SRGI were observed | – | 700 | –
